In general, IC50 refers to the midpoint of a concentration-inhibition curve.

The test system of test [1] is human lung cancer cell line NCI-H460. The experiment in a line: cells. It is filed as cell-based. As to conditions: Homo sapiens, NCI-H460, 48 h. The protocol: (§1) Cell lines: Human pancreatic cancer cell line Panc-1, human colorectal cancer cell line HT29, human lung cancer cell line NCI-H460 and human breast cancer cell line MCF7; the medium: s DMEM (Gibco BRL), containing 10% fetal calf serum (Gibco BRL) and 2 mM L-glutamine (Gibco BRL).
(§2) Test samples: example compounds 7, 15, 82, 89, 116 and 135. The samples were dissolved in dimethyl sulfoxide (DMSO, Sigma, United States) and medium was added to the final concentration of 0.5%. Cyclophosphamide ware as positive control (Aldrich, United States, purity>96%).
(§3) General Method: cells were digested with trypsin and dispersed into single cells in the medium containing penicillin (25 U/ml) and streptomycin (25 μg/mL). The cells were seeded in 96-well culture plates (Corning Incorporated), at 37° C., with 5% CO2 present for 24 hours. The culture medium was removed, […] test compounds were added, cultured for 48 hours. Culture medium was removed and […] (MTT, USA Sigma products) was added. The result was assayed by SK601-based microplate reader (Japan Seikagaku company's products), 570 nm/630 nm optical density (OD). Cell viability determined by the formula: (Experimental group OD/control OD)×100%; CTX and the positive control subjects treated in the same material simultaneously.

The test system of test [2] is human breast cancer cell line MCF7. Put plainly: cells. It is filed as cell-based. The following applies: MCF7, 48 h, read-out: IC50 and 95% confidence limit, MCF7 cells. The protocol: as §1, §2, §3
In another test the test system is mice sarcoma S180. Put plainly: Growth inhibition of S180 sarcoma in mice. It is filed as in vivo, Kunming healthy mice. The following applies: for in-vivo anti-tumor efficacy, statistical significance (in words): S180 sarcoma in mice, doses and routes of Table 3.
The mark [3] stands for this setting: Mus musculus, S-180, mice, iv, read-out: Inhibition rate (%) S180 sarcoma.
[4] abbreviates: Mus musculus, S-180, mice, ip, read-out: Inhibition rate (%) S180 sarcoma.

In brackets after ≈: the same amount, converted by molar mass. Read-outs that look alike come from different tables or passages of the source.

`O=P1(N(CCCl)CCCl)NCCCO1` (centres unmarked) [CTX, Cyclophosphamide, reference compound]: the IC50 in test [1] (read-out: IC50 Lung cancer NCI-H460) was determined as 4.3 µM; in test [1] (read-out: IC50 and 95% confidence limit, NCI-H460 cells), 4.3 µg/mL; in test [2] it was 0.92 µg/mL (≈ 3.52 µM). Besides, in the test on mice sarcoma S180 (setting [3]), the inhibition in vivo at 15 mg/kg was under 40%. As to `CCOP(=O)(OCC)C(Nc1nn(C)c2c(=O)n(C3CSC(CO)O3)nnc12)C(=O)O` (centres unmarked) [Example 90, 2-(diethoxyphosphoryl)-2-((3-(2-(hydroxymethyl)-1,3-oxathiolan-5-yl)-5-methyl-4-oxo-4,5-dihydro-3H-pyrazolo[4,3-d][1,2,3]triazin-7-yl)amino)acetic acid], the inhibition in vivo at 30 mg/kg in the test on mice sarcoma S180 (setting [3]) is under 20%.

`CCCc1nn(C)c2c(=O)n(C3CSC(CO)O3)nnc12` (centres unmarked) [Example 91, 3-(2-(hydroxymethyl)-1,3-oxathiolan-5-yl)-5-methyl-7-propyl-3H-pyrazolo[4,3-d][1,2,3]triazin-4(5H)-one]: the inhibition in vivo at 200 mg/kg in the test with mice sarcoma S180 (setting [4]) is under 40%. In addition, the “in-vivo anti-tumor efficacy, statistical significance (in words)” value in the test with mice sarcoma S180 was “statistically significant”. Turning to `CCCc1nn(CO)c2c(=O)n(C3CSC(CO)O3)nnc12` (centres unmarked) [Example 94, 5-(hydroxymethyl)-3-(2-(hydroxymethyl)-1,3-oxathiolan-5-yl)-7-propyl-3H-pyrazolo[4,3-d][1,2,3]triazin-4(5H)-one], in the test with mice sarcoma S180 (setting [3]), the inhibition in vivo at 30 mg/kg was under 40%. Besides, in the test with mice sarcoma S180, the “in-vivo anti-tumor efficacy, statistical significance (in words)” value is on record as “statistically significant”. As for `CCCc1nn(CC(N)=O)c2c(=O)n(C3CSC(CO)O3)nnc12` (centres unmarked) [Example 95, 2-(3-(2-(hydroxymethyl)-1,3-oxathiolan-5-yl)-4-oxo-7-propyl-3H-pyrazolo[4,3-d][1,2,3]triazin-5(4H)-yl)acetamide], in the test with mice sarcoma S180 (setting [3]), the inhibition in vivo at 50 mg/kg is under 40%. In the test with mice sarcoma S180, the “in-vivo anti-tumor efficacy, statistical significance (in words)” value is reported as “statistically significant”. Consider `CCCc1nn(C(N)=O)c2c(=O)n(C3CSC(CO)O3)nnc12` (centres unmarked) [Example 97, 3-(2-(hydroxymethyl)-1,3-oxathiolan-5-yl)-4-oxo-7-propyl-3H-pyrazolo[4,3-d][1,2,3]triazine-5(4H)-carboxamide], for which the inhibition in vivo at 100 mg/kg with mice sarcoma S180 (setting [4]) is under 40%. Besides, the “in-vivo anti-tumor efficacy, statistical significance (in words)” value in the test with mice sarcoma S180 is reported as “statistically significant”.

For the molecule `NC(=O)n1nc(N)c2nnn(C3CSC(CO)O3)c(=O)c21` (centres unmarked) [Example 98, 7-amino-3-(2-(hydroxymethyl)-1,3-oxathiolan-5-yl)-4-oxo-3H-pyrazolo[4,3-d][1,2,3]triazine-5(4H)-carboxamide], the inhibition in vivo at 70 mg/kg in the test with mice sarcoma S180 (Mus musculus, S-180, mice, ip, 70 mg/kg, read-out: Inhibition rate (%) S180 sarcoma) was under 20%. As for `CN(C)CCC(=O)Nc1nn(C(N)=O)c2c(=O)n(C3CSC(CO)O3)nnc12` (centres unmarked) [Example 99, 7-(3-(dimethylamino)propanamido)-3-(2-(hydroxymethyl)-1,3-oxathiolan-5-yl)-4-oxo-3H-pyrazolo[4,3-d][1,2,3]triazine-5(4H)-carboxamide], the inhibition in vivo at 150 mg/kg with mice sarcoma S180 (Mus musculus, S-180, mice, ip, 150 mg/kg, read-out: Inhibition rate (%) S180 sarcoma) is under 20%.

Consider `CCCc1nn(C(=N)N)c2c(=O)n(C3CSC(CO)O3)nnc12` (centres unmarked) [Example 100, 3-(2-(hydroxymethyl)-1,3-oxathiolan-5-yl)-4-oxo-7-propyl-3H-pyrazolo[4,3-d][1,2,3]triazine-5(4H)-carboximidamide], for which, in the test with mice sarcoma S180 (setting [4]), the inhibition in vivo at 100 mg/kg is under 40%. In the test on mice sarcoma S180, the “in-vivo anti-tumor efficacy, statistical significance (in words)” value is “statistically significant”.

As to `CCCc1nn(O)c2c(=O)n(C3OC(COC(C(=O)O)P(=O)(NC(C)C)NC(C)C)C(O)C3O)nnc12` (centres unmarked) [Example 103, 2-(bis(isopropylamino)phosphoryl)-2-((3,4-dihydroxy-5-(5-hydroxy-4-oxo-7-propyl-4,5-dihydro-3H-pyrazolo[4,3-d][1,2,3]triazin-3-yl)tetrahydrofuran-2-yl)methoxy)acetic acid], in the test with mice sarcoma S180 (setting [4]), the inhibition in vivo at 100 mg/kg was under 20%.

For the molecule `CCCc1nn(C)c2c(=O)n(C3OC(COC(C(=O)O)P(=O)(NC(C)C)NC(C)C)C(O)C3O)nnc12` (centres unmarked) [Example 106, 2-(bis(isopropylamino)phosphoryl)-2-((3,4-dihydroxy-5-(5-methyl-4-oxo-7-propyl-4,5-dihydro-3H-pyrazolo [4,3-d][1,2,3]triazin-3-yl)tetrahydrofuran-2-yl)methoxy)acetic acid], the inhibition in vivo at 50 mg/kg in the test on mice sarcoma S180 (setting [3]) is under 20%. Regarding `CCCc1nn(O)c2c(=O)n(C3OC(COC(C(=O)O)P(NC(C)C)OCC#N)C(O)C3O)nnc12` (centres unmarked) [Example 117, 2-((cyanomethoxy)(isopropylamino)phosphino)-2-((3,4-dihydroxy-5-(5-hydroxy-4-oxo-7-propyl-4,5-dihydro-3H-pyrazolo [4,3-d][1,2,3]triazin-3-yl)tetrahydrofuran-2-yl)methoxy)acetic acid], in the test with mice sarcoma S180 (setting [3]), the inhibition in vivo at 15 mg/kg was under 40%. Also, the “in-vivo anti-tumor efficacy, statistical significance (in words)” value with mice sarcoma S180 is on record as “statistically significant”.

In the case of `CCCc1nn(C)c2c(=O)n(C3OC(COC(C(=O)O)P(NC(C)C)OCC#N)C(O)C3O)nnc12` (centres unmarked) [Example 120, 2-((cyanomethoxy)(isopropylamino)phosphino)-2-((3,4-dihydroxy-5-(5-methyl-4-oxo-7-propyl-4,5-dihydro-3H-pyrazolo[4,3-d][1,2,3]triazin-3-yl)tetrahydrofuran-2-yl)methoxy)acetic acid], in the test on mice sarcoma S180 (Mus musculus, S-180, mice, iv, 12.5 mg/kg, read-out: Inhibition rate (%) S180 sarcoma), the inhibition in vivo at 12.5 mg/kg was under 40%. In addition, the “in-vivo anti-tumor efficacy, statistical significance (in words)” value in the test with mice sarcoma S180 was “statistically significant”. As to `CCCc1nn(C)c2c(=O)n(COC(CO)CO)nnc12` [Example 126, 3-(((1,3-dihydroxypropan-2-yl)oxy)methyl)-5-methyl-7-propyl-3H-pyrazolo[4,3-d][1,2,3]triazin-4(5H)-one], the inhibition in vivo at 50 mg/kg in the test on mice sarcoma S180 (setting [3]) is under 20%. On to `CN(C)CCC(=O)Nc1nn(CC(N)=O)c2c(=O)n(COC(CO)CO)nnc12` [Example 129, N-(5-(2-amino-2-oxoethyl)-3-(((1,3-dihydroxypropan-2-yl)oxy)methyl)-4-oxo-4,5-dihydro-3H-pyrazolo[4,3-d][1,2,3]triazin-7-yl)-3-(dimethylamino) propanamide], for which the inhibition in vivo at 100 mg/kg in the test on mice sarcoma S180 (setting [4]) was under 20%. For the molecule `CCCc1nn(C(=N)N)c2c(=O)n(C3OC(COP(=O)(O)OP(=O)(O)OP(=O)(O)O)C(O)C3O)nnc12` (centres unmarked) [Example 140, (5-(5-carbamimidoyl-4-oxo-7-propyl-4,5-dihydro-3H-pyrazolo[4,3-d][1,2,3]triazin-3-yl)-3,4-dihydroxytetrahydrofuran-2-yl)methyl tetrahydrogen triphosphate], the inhibition in vivo at 200 mg/kg in the test on mice sarcoma S180 (setting [4]) was under 20%. Consider `CCCn1nnc2nnn(C3OC(CO)C(O)C3O)c(=O)c21` (centres unmarked) [Example 147, 6-(3,4-dihydroxy-5-(hydroxymethyl)tetrahydrofuran-2-yl)-1-propyl-1H-[1,2,3]triazolo[4,5-d][1,2,3]triazin-7(6H)-one], for which the inhibition in vivo at 300 mg/kg with mice sarcoma S180 (Mus musculus, S-180, mice, ip, 300 mg/kg, read-out: Inhibition rate (%) S180 sarcoma) is under 20%. In the case of `O=c1c2c(nnn1C1OC(CO)C(O)C1O)nnn2CO` (centres unmarked) [Example 148, 6-(3,4-dihydroxy-5-(hydroxymethyl)tetrahydrofuran-2-yl)-1-(hydroxymethyl)-1H-[1,2,3]triazolo[4,5-d][1,2,3]triazin-7(6H)-one], the inhibition in vivo at 200 mg/kg in the test with mice sarcoma S180 (setting [4]) is under 20%. For the molecule `CCCn1nnc2c(=O)n(C3OC(CO)C(O)C3O)nnc21` (centres unmarked) [Example 151, 6-(3,4-dihydroxy-5-(hydroxymethyl)tetrahydrofuran-2-yl)-3-propyl-3H-[1,2,3]triazolo[4,5-d][1,2,3]triazin-7(6H)-one], the inhibition in vivo at 200 mg/kg with mice sarcoma S180 (setting [4]) is under 20%. In the case of `O=c1c2nnn(CO)c2nnn1C1OC(CO)C(O)C1O` (centres unmarked) [Example 152, 6-(3,4-dihydroxy-5-(hydroxymethyl)tetrahydrofuran-2-yl)-3-(hydroxymethyl)-3H-[1,2,3]triazolo[4,5-d][1,2,3]triazin-7(6H)-one], the inhibition in vivo at 400 mg/kg in the test with mice sarcoma S180 (Mus musculus, S-180, mice, ip, 400 mg/kg, read-out: Inhibition rate (%) S180 sarcoma) is under 20%. In the case of `CCCn1nnc2c(=O)n(C3CCC(COC(C(=O)O)P(=O)(NC(C)C)NC(C)C)O3)nnc21` (centres unmarked) [Example 154, 2-(bis(isopropylamino)phosphoryl)-2-((5-(7-oxo-3-propyl-3H-[1,2,3]triazolo[4,5-d][1,2,3]triazin-6(7H)-yl)tetrahydrofuran-2-yl)methoxy)acetic acid], the inhibition in vivo at 100 mg/kg in the test on mice sarcoma S180 (setting [4]) was under 20%.

In the case of `CC(=O)O[C@H]1C(=O)[C@@]2(C)[C@H]([C@H](OC(=O)c3ccccc3)[C@]3(O)C[C@H](OC(=O)[C@H](O)[C@@H](NC(=O)c4ccccc4)c4ccccc4)C(C)=C1C3(C)C)[C@]1(OC(C)=O)CO[C@@H]1C[C@@H]2O` [Taxol, Paclitaxel, reference compound], the inhibition in vivo at 20 mg/kg in the test with mice sarcoma S180 (Mus musculus, S-180, mice, ip, 20 mg/kg, read-out: Inhibition rate (%) S180 sarcoma) is under 40%.

The values above are taken from US20210292347A1, “DIHETEROCYCLIC TRIAZINONE NUCLEOSIDE ANALOGS AND THEIR USE FOR MEDICATION” (priority 2020, published 2021).
